Values quoted from earlier work in US20230374563A1, “Methods for Antimicrobial Susceptibility Testing” (MicrobeDX, Inc., priority 2017, published 2023).
Values after ≈ are worked out from the molar mass of the structure shown.

System: bacteria
Conditions: for CLSI MIC Cutoffs for (Urine) AST Determination I / MIC Criteria CLSI M100 (2018) I: Intermediate; for CLSI MIC Cutoffs for (Urine) AST Determination R / MIC Criteria CLSI M100 (2018) R: Resistant; for CLSI MIC Cutoffs for (Urine) AST Determination S / MIC Criteria CLSI M100 (2018) S: Susceptible; for MIC Criteria CLSI M100 (2018) S: cefazolin cutoffs for cases not identified as uncomplicated

In the case of `NCC[C@H](O)C(=O)N[C@@H]1C[C@H](N)[C@@H](O[C@H]2O[C@H](CN)[C@@H](O)[C@H](O)[C@H]2O)[C@H](O)[C@H]1O[C@H]1O[C@H](CO)[C@@H](O)[C@H](N)[C@H]1O` [Amikacin], the “CLSI MIC Cutoffs for (Urine) AST Determination I” value is listed as 32 µg/mL, the “CLSI MIC Cutoffs for (Urine) AST Determination R” value is listed as at least 64 µg/mL and the “CLSI MIC Cutoffs for (Urine) AST Determination S” value is listed as at most 16 µg/mL.
In the case of `CC1(C)S[C@@H]2[C@H](NC(=O)[C@H](N)c3ccccc3)C(=O)N2[C@H]1C(=O)O` [Ampicillin], the “MIC Criteria CLSI M100 (2018) I” value is given as 16 µg/mL (≈ 45.8 µM), the “MIC Criteria CLSI M100 (2018) R” value is given as at least 32 µg/mL and the “MIC Criteria CLSI M100 (2018) S” value is given as at most 8 µg/mL. For the same compound, the “CLSI MIC Cutoffs for (Urine) AST Determination I” value was 16 µg/mL, the “CLSI MIC Cutoffs for (Urine) AST Determination R” value was at least 32 µg/mL and the “CLSI MIC Cutoffs for (Urine) AST Determination S” value was under 8 µg/mL.
For `CO/N=C(\C(=O)N[C@@H]1C(=O)N2C(C(=O)O)=C(CSc3nc(=O)c(=O)[nH]n3C)CS[C@H]12)c1csc(N)n1` [Ceftriaxone], the “MIC Criteria CLSI M100 (2018) I” value is listed as 2 µg/mL (≈ 3.61 µM), the “MIC Criteria CLSI M100 (2018) R” value is listed as at least 4 µg/mL and the “MIC Criteria CLSI M100 (2018) S” value is listed as at most 1 µg/mL. The “CLSI MIC Cutoffs for (Urine) AST Determination I” value was 2 µg/mL, the “CLSI MIC Cutoffs for (Urine) AST Determination R” value was at least 4 µg/mL and the “CLSI MIC Cutoffs for (Urine) AST Determination S” value was at most 1 µg/mL.
For `C[C@@H](O)[C@H]1C(=O)N2C(C(=O)O)=C(S[C@@H]3CN[C@H](C(=O)Nc4cccc(C(=O)O)c4)C3)[C@H](C)[C@H]12` [Ertapenem], the “CLSI MIC Cutoffs for (Urine) AST Determination I” value is listed as 1 µg/mL, the “CLSI MIC Cutoffs for (Urine) AST Determination R” value is listed as at least 2 µg/mL and the “CLSI MIC Cutoffs for (Urine) AST Determination S” value is listed as at most 0.5 µg/mL.
For `C[C@@H]1O[C@@H]1P(=O)(O)O` [Fosfomycin], the “CLSI MIC Cutoffs for (Urine) AST Determination I” value is given as 128 µg/mL, the “CLSI MIC Cutoffs for (Urine) AST Determination R” value is given as at least 256 µg/mL and the “CLSI MIC Cutoffs for (Urine) AST Determination S” value is given as at most 64 µg/mL.
In the case of `C[C@@H](O)[C@H]1C(=O)N2C(C(=O)O)=C(S[C@@H]3CN[C@H](C(=O)N(C)C)C3)[C@H](C)[C@H]12` [Meropenem], the “CLSI MIC Cutoffs for (Urine) AST Determination I” value is given as 2 µg/mL, the “CLSI MIC Cutoffs for (Urine) AST Determination R” value is given as at least 4 µg/mL and the “CLSI MIC Cutoffs for (Urine) AST Determination S” value is given as at most 1 µg/mL.
In the case of Amoxicillin/Clavulanate [Amox/Clav], the “CLSI MIC Cutoffs for (Urine) AST Determination I” value is listed as 16/8, the “CLSI MIC Cutoffs for (Urine) AST Determination R” value is listed as ≥32/16 and the “CLSI MIC Cutoffs for (Urine) AST Determination S” value is listed as ≤8/4.
In the case of Gentamicin, the “CLSI MIC Cutoffs for (Urine) AST Determination I” value is given as 8 µg/mL, the “CLSI MIC Cutoffs for (Urine) AST Determination R” value is given as at least 16 µg/mL and the “CLSI MIC Cutoffs for (Urine) AST Determination S” value is given as at most 4 µg/mL.
For Piperacillin/Tazobactam [Pip/Tazo], the “CLSI MIC Cutoffs for (Urine) AST Determination R” value is given as ≥128/4 and the “CLSI MIC Cutoffs for (Urine) AST Determination S” value is given as ≤16/4.
In the case of Trimethoprim/Sulfamethoxazole [TMP/SMX], the “CLSI MIC Cutoffs for (Urine) AST Determination R” value is given as ≥4/76 and the “CLSI MIC Cutoffs for (Urine) AST Determination S” value is given as ≤2/38.
